# Data taken from patent publication US4525348A, “Pranoprofen gelled ointment” (priority 1983, dated 1985).
# Columns and labels:
# [1] = Percutaneous absorption and excretion (Experiment 8); settings: rat
# Source text: Male Donryu rats weighing 120-140 g were divided into groups of 4 animals each. The backs of the rats were shaved with an electric clipper and an electric shaver. […] After this application, the test ointment remaining was wiped off at a set time with absorbent cotton moistened with 50% ethanol. The contained ^14 C was eluted with methanol and determined by conventional methods.
# [2] = oral administration, as compared with indomethacin or other nonsteroid agents; cited from earlier work
smiles,measurement,setting,value
CC(C(=O)O)c1ccc2c(c1)Cc1cccnc1O2 (stereo not drawn) [pranoprofen],Half life of disappearance from blood,"[1]; absorbed pranoprofen, topical",about 5 hours
same,Excretion route,[1]; in vivo,excreted mainly into urine and feces
same,Adverse effects such as gastroenteric disorders,[2],very rarely
